Measurements from patent US8877696B2, “Cleaning compositions comprising pH-switchable amine surfactants” (The Proctor & Gamble Company, priority 2012, dated 2014).

Assays:
Assay type in all cases: physicochemical
[1] = Critical micelle formation concentration (CMC) by surface tension
Procedure: MEASUREMENT OF THE CRITICAL MICELLE FORMATION CONCENTRATION (CMC): CMC measurements are conducted by a measurement of a surface tension measure as a function of surfactant concentration according to “Surfactant: A Practical Handbook,” K. Robert Lange ed., Hanser Publishers, Munich (1999), pp. 16-17. A 5000-ppm stock solution of the samples is prepared for the analysis on a Kruss K100 Tensiometer (Kruss USA, Charlotte, N.C.). The hardness level and pH are adjusted using corresponding stock solutions of artificial hardness and an NaOH solution. The concentration series is generated automatically with a computer-controlled Dosimat, so that only a surfactant stock solution needs to be prepared. Measurements of surface tension at the air-water interface are carried out at twelve surfactant concentrations. The samples are analyzed at pH 8 and pH 10 for hardness values of 4 gpg and 8 gpg, all measurements being taken at 25.0° C. (±0.5° C.). The CMC data are analyzed by plotting increase in surface tension with respect to dilution by using the “CMC Add-In” of the Lab Desk software from Kruss. The CMC is defined as the surfactant concentration at the breakpoint in the titration curve.

[2] = Suds testing protocol (FOAMSCAN foam / suds / lather volume); conditions: for Foam Volume: lauric acid 2000 ppm
Procedure: SUDS TESTING PROTOCOL: Foam volume and foam mileage are measured by […] instrument manufactured by […].-Concept, Longessaigne, France. The experiment is run at 25.0° C. (±0.5° C.). […] The cleaning solution contains 25 ppm Technical Body Soil (“TBS”; consisting of 15 wt. % coconut oil, 15 wt. % oleic acid, 15 wt. % paraffin oil, 15 wt. % olive oil, 15 wt. % cottonseed oil, 5 wt. % squalene, 5 wt. % cholesterol, 5 wt % myristic acid, 5 wt. % palmitic acid, and 5 wt. % stearic acid). The cleaning solution is mixed and aged at 60° C. for an hour and is placed into the […] sample chamber, a 1000-mL cylindrical transparent plastic cell. […] The suds volume recorded at the end of stifling is defined as the suds volume generated. The suds mileage is monitored by the time course of the suds height over 10 minutes. The final suds volume at the end of the 10 minutes is reported. […] Hardness is indicated by a calculation where both calcium and magnesium values are reported as mg/L (ppm), in which 2.5[Ca]+4.12[Mg] equals hardness in mg/L. The unit “grains per gallon” (gpg) is defined as 1 grain (64.8 mg) of calcium carbonate per U.S. gallon (3.79 L), or 17.118 ppm. Thus, 1 gpg is equivalent to 17.118 ppm of the Calcium and Magnesium solution at a 3:1 molar ratio of calcium to magnesium.

[3] = Marangoni effect (E′/E″), oscillating drop interfacial rheology; conditions: pH 10.0 (wash), lauric acid system
Procedure: […] EFFECT (EYE'') MEASUREMENT: The Marangoni Effect quantifies the origin of foam film stability. Dynamic interfacial rheology is measured by a DSA100 (Kruss USA, Charlotte, N.C.) instrument equipped with an Oscillating Drop Module (ODM). The measurement is based on monitoring oscillating pendent drop shape with a CCD camera. The dynamic changes in the surface area and the interfacial tension (air-liquid interface) of the pendent drop from oscilating at equal periods, were recorded. A delay of dynamic interfacial tension change to dynamic surface area change is expressed as a phase angle Φ […]. From the measured phase angle, the Elastic Modulus (E') and Viscous Modulus (E'') are calculated. The Marangoni Effect EYE'' is computed from the relationship, E'/E''=cot Φ. At various surfactant levels, measurements are conducted at pH 10 and 4 gpg hardness in a base matrix of 300 ppm LAS (detergent measurements only) or 2000 ppm fatty acid (bar soap measurements only); 2300 ppm Na2SO4, and 25 ppm TBS (described above). The pH-switchable cosurfactants are added on the top of the base matrix to assess their impact on foam-film stability. The ODM operation is conducted with a period time of 2 seconds and an oscillation amplitude of 0.1 or 0.5.

[4] = Micellar lifetime (τ2) by stopped flow conductimetry; conditions: pH 10.0 (wash), lauric acid system
Procedure: MEASUREMENT OF […] […] (τ2): The micellar stability of a surfactant system is measured by Stopped Flow Conductimetry. The experiment is run at 25.0° C. (±0.5° C.). […] The conductivity of the solution is monitored by a MCS-200 Impedance Spectrometer from Bio-Logic SAS. The τ2 value is defined as the time required to reach a new equilibrium, as determined by curve-fit software BKMCS (version #1) from the Bio-Logic SAS company.

For `CCCCCCCCCCCC[N+](C)(C)CCO.[Br-]` [KDB, dodecyl-(2-hydroxyethyl)-dimethyl ammonium bromide], the CMC ([1]; pH 8) was 48 ppm and the CMC ([1]; pH 10) was 43 ppm.
In the case of `CCCCCCCCCCCC(=O)O` [Lauric Acid], the “Foam Volume” value ([2]; pH 8.0 (rinse)) is reported as 222 mL, the “Foam Volume” value ([2]; pH 10.0 (wash)) is reported as 80 mL and the “E′/E″” value [3] is reported as 1.5. The τ2 [4] was 39 ms.
Work on `CCCCCCCCCCCCNCCC[N+](C)(C)C.[Br-]` [QUAT, 3-(dodecylamino)-N,N,N-trimethylpropan-1-aminium bromide] yielded a CMC ([1]; pH 8) of 82 ppm and a CMC ([1]; pH 10) of 75 ppm.
In the case of `CCCCCCCCCCCC(=O)[O-].[Na+]` [Sodium Laurate], the “Change of Lather Volume (rinse vs wash)” value ([2]; 4 gpg) is reported as −72%, the “Change of Lather Volume (rinse vs wash)” value ([2]; 8 gpg) is reported as −100% and the “Change of Lather Volume (rinse vs wash)” value ([2]; DI Water) is reported as −23%. The “Lather Volume” value ([2]; pH 8.0 (rinse), 4 gpg) was 60 mL, the “Lather Volume” value ([2]; pH 8.0 (rinse), 8 gpg) was 0 mL and the “Lather Volume” value ([2]; pH 8.0 (rinse), 12 gpg) was 0 mL. For the same compound, the “Lather Volume” value ([2]; pH 8.0 (rinse), 16 gpg) was 0 mL, the “Lather Volume” value ([2]; pH 8.0 (rinse), DI Water) was 170 mL and the “Lather Volume” value ([2]; pH 10.0 (wash), 4 gpg) was 215 mL. The “Lather Volume” value ([2]; pH 10.0 (wash), 8 gpg) was 175 mL, the “Lather Volume” value ([2]; pH 10.0 (wash), 12 gpg) was 0 mL and the “Lather Volume” value ([2]; pH 10.0 (wash), 16 gpg) was 0 mL. For the same compound, the “Lather Volume” value ([2]; pH 10.0 (wash), DI Water) was 220 mL.
